Key:
[1] = cited from earlier work
[2] = system: whole blood; test: PT assay on sensor with SBQ-PVA immobilized substrate, heparin-spiked whole blood
Procedure: FIGS. 10 and 11 exemplify this concept as follows. A coagulation sensor was directly printed either with a large (FIG. 10) or small (FIG. 11) SBQ-PVA immobilized coagulation substrate. Subsequently, a PT coagulation activator was printed on top of the immobilized substrate matrix. These sensors were then tested with appropriate fluids to assess coagulation time. As with the results from FIGS. 5 and 6, one benefit of printing more of the immobilized substrate matrix is that the increased amount of immobilized substrate matrix led to an increase in pA. Also, when heparin is spiked into the whole blood sample, the clotting times are not as extended as they are expected to be (FIGS. 10 and 11 (response curves 181) (heparin spike) should be more similar to response curves 182 (abnormally long control fluid) clotting times, but are actually behaving more like whole blood without heparin, (response curves 183)). […] Further, applying a larger amount of the immobilizing matrix results in a greater neutralizing effect (e.g., compare the bias between whole blood and whole blood with heparin in FIGS. 10 and 11). […] In both FIGS. 10 and 11, the heparin spiked blood behaves more like unaltered whole blood than it does like an abnormally long control fluid, reflecting that there is an interferent/heparin neutralizing effect.

| Compound | solubility in methanol [1] | extension of PT clotting time versus whole blood ([2]; heparin 1 IU/mL, smaller print amount of SBQ-PVA neutralizing matrix (FIG. 11)) [%] | extension of PT clotting time versus whole blood ([2]; heparin added to 1 IU/mL, large SBQ-PVA matrix print (FIG. 10)) [%] |
| --- | --- | --- | --- |
| O=c1oc2c(O)c(O)cc3c(=O)oc4c(O)c(O)cc1c4c23 [ellagic acid] | slightly soluble | – | – |
| heparin | – | 55 | 14 |
